Structures are written as SMILES. Read-outs that look alike come from different tables or passages of the source.

For this assay, the system named is SKOV3 cells. Briefly: IC50 concentration of standard ovarian cancer chemotherapy. Format: cell-based.

`N.N.O=C([O-])C1(C(=O)[O-])CCC1.[Pt+2]` [Carboplatin]: the IC50 was found to be 10 µM (Carboplatin individually, read-out: IC50) and 1 µM (Carboplatin part of the combination, read-out: IC50 in combination Paclitaxel+Carboplatin).

What is called IC50 is the concentration needed to halve the response being measured.

Values taken from patent US10111935B2, “Agent for capturing tumor cells and methods of use thereof” (priority 2014, dated 2018).
